According to patent US20260132140A1, “IMIDAZOLYL-AMINO-PYRAZINE-CARBONITRILS AS CHK-1 INHIBITORS” (BenevolentAI Bio Limited, priority 2022, published 2026):
Where two headings read alike, the source gives them in different places.

How the values were obtained:
human Chk2 kinase [1] = target: T1, human Chk2 kinase (Homo sapiens, UniProt O96017)
RSK1 = target: T2, RSK1 (Homo sapiens, UniProt Q15418); assay: RSK1-4 kinase assay (Eurofins KinaseProfiler, radiometric): RSK1; type: biochemical; details: approximately ATP Km
T2 construct: purchased Eurofins (KinaseProfiler service)
From the text: (§1) The radiometric kinase activity assays were run at approximately the ATP Km for each kinase and the IC50 data is shown in Table 24.

RSK2 = target: T3, RSK2 (Homo sapiens, UniProt P51812); assay: RSK1-4 kinase assay (Eurofins KinaseProfiler, radiometric): RSK2; type: biochemical; details: approximately ATP Km
T3 construct: purchased Eurofins (KinaseProfiler service)
From the text: as §1

RSK3 = target: T4, RSK3 (Homo sapiens, UniProt Q15349); assay: RSK1-4 kinase assay (Eurofins KinaseProfiler, radiometric): RSK3; type: biochemical; details: approximately ATP Km
T4 construct: purchased Eurofins (KinaseProfiler service)
From the text: as §1

RSK4 = target: T5, RSK4 (Homo sapiens, UniProt Q9UK32); assay: RSK1-4 kinase assay (Eurofins KinaseProfiler, radiometric): RSK4; type: biochemical; details: approximately ATP Km
T5 construct: purchased Eurofins (KinaseProfiler service)
From the text: as §1

human Chk1 kinase [2] = target: T6, human Chk1 kinase (Homo sapiens, UniProt O14757); assay: biochemical
T6 sequence (O14757 1-476): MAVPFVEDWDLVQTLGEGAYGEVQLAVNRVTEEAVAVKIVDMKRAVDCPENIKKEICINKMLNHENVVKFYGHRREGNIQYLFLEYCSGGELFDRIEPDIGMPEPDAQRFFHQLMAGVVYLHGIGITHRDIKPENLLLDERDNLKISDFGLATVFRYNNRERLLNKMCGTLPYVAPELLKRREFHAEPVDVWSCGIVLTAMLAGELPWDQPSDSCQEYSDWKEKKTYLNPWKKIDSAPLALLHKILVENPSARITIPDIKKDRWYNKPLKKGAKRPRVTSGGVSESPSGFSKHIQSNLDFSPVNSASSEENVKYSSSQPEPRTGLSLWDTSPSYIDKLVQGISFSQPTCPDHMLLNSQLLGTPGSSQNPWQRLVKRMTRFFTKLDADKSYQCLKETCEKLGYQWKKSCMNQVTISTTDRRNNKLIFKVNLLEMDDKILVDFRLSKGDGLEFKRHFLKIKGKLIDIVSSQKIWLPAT

human Chk2 kinase [3] = target: T1, human Chk2 kinase; assay: biochemical
GBM LN18 cells = assay: In vitro cell viability assay (Cell Titre Glo, 72 hours); type: cell-based; details: Homo sapiens, LN-18, read-out: LN18 pIC50 (converted)
Procedure: GBM LN18 cells were incubated with increasing concentrations of selected compounds of the invention for 72 hours prior to the measurement of ATP in metabolically viable cells with the Cell Titre® Glo Luminescent reagent. A 10-point concentration response curve up to a maximum concentration of 10 μM was tested.
The percent (%) effect i.e., inhibition at each concentration of compound was calculated based on, and relative to the amount of inhibition produced in the vehicle control and inhibited control wells contained within each plate.

[4] = system: pChk1(Ser296) in SW620 cells; assay: pChk1(Ser296) sandwich ELISA, cell-based on-target kinase activity; details: Homo sapiens, read-out: SW620 pIC50 (converted)
Procedure: ELISA assays were performed as per the manufacturer's protocol. […] Selected compounds of the invention were tested as a 8-point concentration response up to a maximum concentration of either 1 μM, 3 μM or 10 μM. The percent (%) effect i.e. inhibition at each concentration of compound was calculated based on, and relative to, the amount of inhibition produced in the vehicle control and inhibited control wells contained within each plate.

[5] = system: 373 human wild-type kinases; assay: Kinome selectivity, Eurofins KinaseProfiler kinase screen; type: biochemical; details: panel of 373 human wild-type kinases, approximately ATP Km, top concentration 10 μM
From the text: The radiometric kinase activity assays were run at approximately the ATP Km for each kinase.

human Chk1 kinase [6] = target: T6, human Chk1 kinase; assay: Human Chk1 HTRF (Homogeneous Time Resolved Fluorescence) enzyme assay; details: 1 nM Chk-1, 30 μM ATP
[7] = SW-620, neocarzinostatin 7.5 μM, 2 hours
[8] = SW-620, 2 h, neocarzinostatin 7.5 μM

T1 sequence (O96017 whole entry): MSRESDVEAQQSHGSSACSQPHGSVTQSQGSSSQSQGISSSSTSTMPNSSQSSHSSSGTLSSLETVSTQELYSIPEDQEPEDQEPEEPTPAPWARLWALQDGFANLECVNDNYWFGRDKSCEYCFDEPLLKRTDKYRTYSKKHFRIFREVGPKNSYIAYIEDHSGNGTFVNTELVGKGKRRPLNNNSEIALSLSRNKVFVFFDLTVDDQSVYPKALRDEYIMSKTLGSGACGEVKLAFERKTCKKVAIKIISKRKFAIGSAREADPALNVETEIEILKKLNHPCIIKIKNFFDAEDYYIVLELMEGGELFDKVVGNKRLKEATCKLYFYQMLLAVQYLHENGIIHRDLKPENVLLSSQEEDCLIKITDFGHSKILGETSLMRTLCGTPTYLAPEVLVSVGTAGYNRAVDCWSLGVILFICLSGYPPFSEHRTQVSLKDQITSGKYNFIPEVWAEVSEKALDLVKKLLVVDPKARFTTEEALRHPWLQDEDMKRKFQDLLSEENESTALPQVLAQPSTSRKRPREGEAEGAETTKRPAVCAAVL
T5 sequence (Q9UK32 whole entry): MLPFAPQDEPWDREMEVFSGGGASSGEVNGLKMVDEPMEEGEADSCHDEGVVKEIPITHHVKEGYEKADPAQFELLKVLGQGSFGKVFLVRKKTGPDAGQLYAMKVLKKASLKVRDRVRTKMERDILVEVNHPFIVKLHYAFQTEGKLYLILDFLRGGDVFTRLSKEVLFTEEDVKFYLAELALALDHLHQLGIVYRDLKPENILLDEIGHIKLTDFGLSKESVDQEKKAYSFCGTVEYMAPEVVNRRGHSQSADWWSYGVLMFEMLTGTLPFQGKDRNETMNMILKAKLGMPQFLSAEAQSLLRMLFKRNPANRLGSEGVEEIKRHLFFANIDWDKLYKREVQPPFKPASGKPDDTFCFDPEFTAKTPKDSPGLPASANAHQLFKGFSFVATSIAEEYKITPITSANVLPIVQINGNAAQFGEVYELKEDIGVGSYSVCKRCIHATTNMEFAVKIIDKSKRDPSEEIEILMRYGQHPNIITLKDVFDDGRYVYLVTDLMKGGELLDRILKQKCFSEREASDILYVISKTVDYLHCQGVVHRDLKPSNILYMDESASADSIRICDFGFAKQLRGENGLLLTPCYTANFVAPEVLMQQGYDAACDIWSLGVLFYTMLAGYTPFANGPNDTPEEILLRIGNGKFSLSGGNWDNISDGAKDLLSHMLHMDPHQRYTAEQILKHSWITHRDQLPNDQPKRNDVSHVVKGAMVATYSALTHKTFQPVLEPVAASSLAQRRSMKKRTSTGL
T2 sequence (Q15418 whole entry): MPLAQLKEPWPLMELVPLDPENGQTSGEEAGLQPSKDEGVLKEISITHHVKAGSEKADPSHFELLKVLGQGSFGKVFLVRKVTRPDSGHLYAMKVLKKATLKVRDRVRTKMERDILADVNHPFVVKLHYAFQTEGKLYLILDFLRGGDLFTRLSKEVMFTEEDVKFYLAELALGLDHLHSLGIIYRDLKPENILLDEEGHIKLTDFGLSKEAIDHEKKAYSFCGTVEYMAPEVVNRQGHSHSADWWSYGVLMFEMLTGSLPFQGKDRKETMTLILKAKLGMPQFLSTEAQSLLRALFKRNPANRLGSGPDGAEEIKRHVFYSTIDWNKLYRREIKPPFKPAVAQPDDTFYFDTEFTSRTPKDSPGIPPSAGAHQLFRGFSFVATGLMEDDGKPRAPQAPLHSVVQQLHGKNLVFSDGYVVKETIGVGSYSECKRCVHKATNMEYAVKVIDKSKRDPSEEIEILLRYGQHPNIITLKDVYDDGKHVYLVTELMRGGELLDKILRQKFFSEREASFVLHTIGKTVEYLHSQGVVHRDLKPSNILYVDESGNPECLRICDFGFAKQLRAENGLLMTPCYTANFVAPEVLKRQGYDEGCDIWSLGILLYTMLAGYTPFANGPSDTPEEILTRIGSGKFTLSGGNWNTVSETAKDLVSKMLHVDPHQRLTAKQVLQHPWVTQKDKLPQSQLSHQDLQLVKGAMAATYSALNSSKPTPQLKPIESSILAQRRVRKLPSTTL
T4 sequence (Q15349 whole entry): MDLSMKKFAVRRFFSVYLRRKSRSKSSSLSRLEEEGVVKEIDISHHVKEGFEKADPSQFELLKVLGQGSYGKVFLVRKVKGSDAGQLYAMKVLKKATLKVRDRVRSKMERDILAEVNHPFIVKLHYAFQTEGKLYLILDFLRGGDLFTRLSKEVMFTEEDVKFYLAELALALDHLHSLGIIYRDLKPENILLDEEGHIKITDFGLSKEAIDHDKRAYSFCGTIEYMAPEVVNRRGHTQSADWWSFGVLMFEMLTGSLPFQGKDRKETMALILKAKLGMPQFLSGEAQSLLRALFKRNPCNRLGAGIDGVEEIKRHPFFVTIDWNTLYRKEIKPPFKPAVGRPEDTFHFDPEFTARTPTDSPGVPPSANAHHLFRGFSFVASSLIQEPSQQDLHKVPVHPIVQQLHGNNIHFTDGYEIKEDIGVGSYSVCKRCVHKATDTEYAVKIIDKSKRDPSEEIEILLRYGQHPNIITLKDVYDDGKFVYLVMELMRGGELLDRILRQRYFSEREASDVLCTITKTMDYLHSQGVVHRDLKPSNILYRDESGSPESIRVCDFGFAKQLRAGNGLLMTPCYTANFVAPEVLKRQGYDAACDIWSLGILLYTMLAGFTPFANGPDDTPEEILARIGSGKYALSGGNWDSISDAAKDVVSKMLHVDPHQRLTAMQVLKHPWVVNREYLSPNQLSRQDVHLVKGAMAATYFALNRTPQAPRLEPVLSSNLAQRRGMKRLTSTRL
T3 sequence (P51812 whole entry): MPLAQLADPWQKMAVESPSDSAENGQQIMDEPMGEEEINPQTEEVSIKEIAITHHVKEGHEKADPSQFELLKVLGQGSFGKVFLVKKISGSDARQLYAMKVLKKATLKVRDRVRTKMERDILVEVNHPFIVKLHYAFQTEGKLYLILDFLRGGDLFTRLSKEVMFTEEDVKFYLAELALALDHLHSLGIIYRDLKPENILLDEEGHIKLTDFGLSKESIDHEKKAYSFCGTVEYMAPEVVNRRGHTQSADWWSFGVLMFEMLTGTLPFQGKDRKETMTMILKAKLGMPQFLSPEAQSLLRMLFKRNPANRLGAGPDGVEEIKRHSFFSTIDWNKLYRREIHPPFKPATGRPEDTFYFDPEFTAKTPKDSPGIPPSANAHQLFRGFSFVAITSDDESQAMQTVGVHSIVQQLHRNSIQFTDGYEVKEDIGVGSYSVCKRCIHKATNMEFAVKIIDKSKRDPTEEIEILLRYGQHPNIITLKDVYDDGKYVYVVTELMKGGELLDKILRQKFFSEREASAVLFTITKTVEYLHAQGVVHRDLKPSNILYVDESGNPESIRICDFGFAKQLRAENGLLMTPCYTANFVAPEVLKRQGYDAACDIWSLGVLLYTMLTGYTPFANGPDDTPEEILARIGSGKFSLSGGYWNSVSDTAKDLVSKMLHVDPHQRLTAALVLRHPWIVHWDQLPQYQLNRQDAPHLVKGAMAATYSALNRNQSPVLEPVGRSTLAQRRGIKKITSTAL

IC50 (human Chk2 kinase [1]) | IC50 (RSK1) | IC50 (RSK2) | IC50 (RSK3) | IC50 (RSK4) | IC50 (human Chk2 kinase [3]) | SMILES | also measured
> 100000 nM | – | – | – | – | – | CN1CCC12CCN(c1ccc(-n3cnc(Nc4cnc(C#N)cn4)c3)cc1)C2 (single isomer, unassigned) [Example 128, 5-((1-(4-(1-Methyl-1,6-diazaspiro[3.4]octan-6-yl)phenyl)-1H-imidazol-4-yl)amino)pyrazine-2-carbonitrile] | –
– | 6780 nM | 2670 nM | 1920 nM | 4070 nM | 10000 to 100000 nM | CN1CCC12CN(c1ccc(-n3cnc(Nc4cnc(C#N)cn4)c3)cc1)C2 [Example 61, 5-((1-(4-(1-Methyl-1,6-diazaspiro[3.3]heptan-6-yl)phenyl)-1H-imidazol-4-yl)amino)pyrazine-2-carbonitrile] | IC50 (human Chk1 kinase [2]): 10 to 31.6 nM
– | 3420 nM | 1120 nM | 822 nM | 1960 nM | 1000 to 10000 nM | CN[C@@H]1CCN(c2ccc(-n3cnc(Nc4cnc(C#N)cn4)c3)cc2)C1 [Example 155, (R)-5-((1-(4-(3-(Methylamino)pyrrolidin-1-yl)phenyl)-1H-imidazol-4-yl)amino)pyrazine-2-carbonitrile] | IC50 (GBM LN18 cells): < 1000 nM; IC50 [4, 8]: < 1000 nM; Number of 372 kinases inhibited relative to Chk1 IC50 Within 10-fold [5]: 1; Number of 372 kinases inhibited relative to Chk1 IC50 Within 100-fold [5]: 6; IC50 (human Chk1 kinase [2]): < 10 nM
– | 20 nM | 2 nM | 4 nM | 5 nM | – | COc1cccc(OCCCN)c1-c1cc(Nc2cnc(C#N)cn2)n[nH]1 [Comparator Ex. 1, 5-((5-(2-(3-Aminopropoxy)-6-methoxyphenyl)-1H-pyrazol-3-yl)amino)pyrazine-2-carbonitrile, reference compound] | –
– | – | – | – | – | > 100000 nM | CC1CN(C2CCN(c3ccc(-n4cnc(Nc5cnc(C#N)cn5)c4)cc3)C2)C1 (single isomer, unassigned) [Example 126, 5-((1-(4-(3-(3-Methylazetidin-1-yl)pyrrolidin-1-yl)phenyl)-1H-imidazol-4-yl)amino)pyrazine-2-carbonitrile] | Chk1 pIC50 (human Chk1 kinase [6]): D (D: 7.5-8.0)
– | – | – | – | – | 1000 to 10000 nM | CC1(C)CN(C2CCN(c3ccc(-n4cnc(Nc5cnc(C#N)cn5)c4)cc3)C2)C1 (single isomer, unassigned) [Example 124, 5-((1-(4-(3-(3,3-Dimethylazetidin-1-yl)pyrrolidin-1-yl)phenyl)-1H-imidazol-4-yl)amino)pyrazine-2-carbonitrile] | Chk1 pIC50 (human Chk1 kinase [6]): D (D: 7.5-8.0)
1000 to 10000 nM | – | – | – | – | – | N#Cc1cnc(Nc2cn(-c3ccc(N4CCC(N5CC6(CCC6)C5)C4)cc3)cn2)cn1 (single isomer, unassigned) [Example 132, 5-((1-(4-(3-(2-Azaspiro[3.3]heptan-2-yl)pyrrolidin-1-yl)phenyl)-1H-imidazol-4-yl)amino)pyrazine-2-carbonitrile] | –
> 100000 nM | – | – | – | – | – | N#Cc1cnc(Nc2cn(-c3ccc(N4CCN5CCCC5C4)cc3)cn2)cn1 (single isomer, unassigned) [Example 118, 5-((1-(4-(Hexahydropyrrolo[1,2-a]pyrazin-2(1H)-yl)phenyl)-1H-imidazol-4-yl)amino)pyrazine-2-carbonitrile] | –
– | > 10000 nM | 2460 nM | 2210 nM | 4960 nM | – | CN1CCC(F)(c2ccc(-n3cnc(Nc4cnc(C#N)cn4)c3)cc2)CC1 [Example 4, 5-((1-(4-(4-Fluoro-1-methylpiperidin-4-yl)phenyl)-1H-imidazol-4-yl)amino)pyrazine-2-carbonitrile] | –
– | 570 nM | 172 nM | 60 nM | 163 nM | – | CCNCc1ccc(-c2cc(Nc3cnc(C#N)cn3)n[nH]2)c(OC)c1 [Comparator Ex. 3, 5-((5-(4-((Ethylamino)methyl)-2-methoxyphenyl)-1H-pyrazol-3-yl)amino)pyrazine-2-carbonitrile, reference compound] | –
10000 to 100000 nM | – | – | – | – | – | CN(C)C1CCCN(c2cccc(-n3cnc(Nc4cnc(C#N)cn4)c3)c2)C1 (single isomer, unassigned) [Example 112, 5-((1-(3-(3-(Dimethylamino)piperidin-1-yl)phenyl)-1H-imidazol-4-yl)amino)pyrazine-2-carbonitrile] | –
– | 259 nM | 80 nM | 24 nM | 77 nM | – | COc1cc(N2CCN(C)CC2)ccc1-c1cc(Nc2cnc(C#N)cn2)n[nH]1 [Comparator Ex. 2, 5-((5-(2-Methoxy-4-(4-methylpiperazin-1-yl)phenyl)-1H-pyrazol-3-yl)amino)pyrazine-2-carbonitrile, reference compound] | –
> 100000 nM | – | – | – | – | – | N#Cc1cnc(Nc2cn(-c3cccc(N4CCC(N)C(F)(F)C4)c3)cn2)cn1 (single isomer, unassigned) [Example 167, 5-((1-(3-(4-Amino-3,3-difluoropiperidin-1-yl)phenyl)-1H-imidazol-4-yl)amino)pyrazine-2-carbonitrile] | –
10000 to 100000 nM | – | – | – | – | – | CN1CCOC(c2ccc(-n3cnc(Nc4cnc(C#N)cn4)c3)cc2)C1 (single isomer, unassigned) [Example 106, 5-((1-(4-(4-Methylmorpholin-2-yl)phenyl)-1H-imidazol-4-yl)amino)pyrazine-2-carbonitrile] | –
– | – | – | – | – | 10000 to 100000 nM | CN(CCO)C1CCN(c2cccc(-n3cnc(Nc4cnc(C#N)cn4)c3)c2)C1 (single isomer, unassigned) [Example 110, 5-((1-(3-(3-((2-Hydroxyethyl)(methyl)amino)pyrrolidin-1-yl)phenyl)-1H-imidazol-4-yl)amino)pyrazine-2-carbonitrile] | Chk1 pIC50 (human Chk1 kinase [6]): D (D: 7.5-8.0)
– | – | – | – | – | 1000 to 10000 nM | N#Cc1cnc(Nc2cn(-c3ccc(N4CC[C@@H](N)C4)cc3)cn2)cn1 [Example 153, (R)-5-((1-(4-(3-Aminopyrrolidin-1-yl)phenyl)-1H-imidazol-4-yl)amino)pyrazine-2-carbonitrile] | IC50 (GBM LN18 cells): 1000 to 10000 nM; IC50 [4, 8]: 1000 to 10000 nM; IC50 (human Chk1 kinase [2]): 10 to 31.6 nM
10000 to 100000 nM | – | – | – | – | – | CN(C)CC1CN(c2cccc(-n3cnc(Nc4cnc(C#N)cn4)c3)c2)CCO1 (single isomer, unassigned) [Example 108, 5-((1-(3-(2-((Dimethylamino)methyl)morpholino)phenyl)-1H-imidazol-4-yl)amino)pyrazine-2-carbonitrile] | IC50 (human Chk1 kinase [2]): 10 to 31.6 nM

SMILES | IC50 (human Chk2 kinase [1]) | IC50 (RSK1) | IC50 (RSK2) | IC50 (RSK3) | IC50 (RSK4) | IC50 (human Chk2 kinase [3]) | also measured
N#Cc1cnc(Nc2cn(-c3ccccc3OCCCN)cn2)cn1 [Example 168, 5-((1-(2-(3-Aminopropoxy)phenyl)-1H-imidazol-4-yl)amino)pyrazine-2-carbonitrile] | – | > 10000 nM | 7070 nM | 5830 nM | > 10000 nM | – | IC50 (GBM LN18 cells): 1000 to 10000 nM; IC50 [4, 7]: 1000 to 10000 nM
CN(C)[C@@H]1CCN(c2ccc(-n3cnc(Nc4cnc(C#N)cn4)c3)cc2)C1 [Example 12, (R)-5-((1-(4-(3-(Dimethylamino)pyrrolidin-1-yl)phenyl)-1H-imidazol-4-yl)amino)pyrazine-2-carbonitrile] | – | > 10000 nM | 6620 nM | 4340 nM | 9200 nM | – | IC50 (GBM LN18 cells): < 1000 nM; IC50 [4, 7]: < 1000 nM; IC50 (human Chk1 kinase [2]): < 10 nM
